The text below walks through data of patent publication US6358921B1, “Antimicrobial peptide compositions and method” (priority 1996, dated 2002).

One series relates to human erythrocytes. The series can be described thus: Hemolytic activity. The format is cell-based. As for the experimental part: Serial dilutions of the peptides in saline were prepared in round bottom microtitre plates using 100 μL volumes. Red blood cells were diluted with saline to 1/25 packed volume of cells and 50 μL added to each well. Plates were incubated with rocking at 37° C., and the concentration required for complete lysis determined visually after 4 h.

In the next series the test system is E. coli UB1005. In kind it is cell-based, Escherichia coli. Particulars: for Antibiotic activity (Table 11, ring analogs): E. coli UB1005, unit from Table 10. The method in brief:
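Liquid-broth rather than agar method. Organisms: clinical isolates (C. albicans, S. epidermidis), environmental C. xerosis, wild-type E. coli UB1005.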

A further series concerns yeast. Description: Antibiotic activity, yeast. The format is cell-based. Particulars: average activity calculated from Table II. From the text:
(§1) The following bacterial strains were utilized: Escherichia coli UB1005 (wt) and its antibiotic supersusceptible derivative DC2 (Clark, 1984); Excherichia coli SC9251 and its polymixin B rasistant mutant pmrA SC9252 (Peterson, et al., 1987) Pseudomonas aeruginosa H187 (wt) (Angus, et al., 1987) and its antibiotic-sensitive derivative H188 (Zimmerman, W, Antimicrob. Agents Chemother. 18: 94-100, 1980); methicillin sensitive Staphylococcus aureus K147 (Kreiswirth, et al., 1983); Staphylococcus aureus SAP0017, a methicillin resistant clinical isolate from Dr. A. Chow (University of British Columia); Bacillus subtilis, an environmental wt lab strain. Enterococcus faecalis are ATCC 29212 cells and Staphylococcus epidermidis was a clinical isolate from Dr. D. Speert (University of British Columbia). Antifungal activity was tested using a clinical lab isolate of Candida albicans. Salmonella typhinurium C57 and C610 (Fields, P.I., et al., Science 243: 1059-1062 (1989) Corynebacterium xerosis was an environmental isolate (University of British Columbia).
(§2) It is now apparent that agar-based assays severely underestimate antifungal activity as well as activity against gram negative microorganisms (Kondejewski, et al., 1996). Consequently, in the studies reported herein, a liquid-broth method was used to measure the antibiotic properties of the peptides. […] Briefly, cells were grown overnight at 37° C. in LB and diluted in the same medium. Serial dilutions of antibiotics were added to the microtitre plates in a volume of 100 μL followed by 10 μL of bacteria to give a final inoculum of 5×10^5 CFU/mL. Plates were incubated at 37° C. overnight and MICs determined as the lowest antibiotic concentration that inhibited growth.
(§3) The results from antimicrobial and hemolytic assays are combined to provide a “Therapeutic Index” (TI) for each peptide with respect to individual microorganisms. As reported herein, the TI is calculated as the hemolytic activity divided by the antimicrobial activity. The TI thus is a measure of specificity of the particular peptide for microbial membranes as opposed to human blood cell membranes. In the present studies, antimicrobial activities are reported as minimum inhibitory concentrations (MIC)—the lowest concentration of peptide (μg/ml) found to inhibit growth of the particular microbe. Hemolytic activity is reported as the concentration of peptide that effected complete lysis of blood cells after four hours. Thus, in the context of the present invention high TI values indicate microbial specificity and relative lack of toxicity.

The test system of series [1] is gram positive microorganisms. The format is cell-based. To be noted: for Antibiotic activity, gram-positive: average activity calculated from Table II.
Excerpt: as §1, §2, §3

Series [2] relates to gram negative microorganisms. In kind it is cell-based. To be noted: average activity calculated from Table II.
Excerpt: as §1, §2, §3

For a further series, the system named is P. aeruginosa H188. In kind it is cell-based, Pseudomonas aeruginosa. Particulars: for Antibiotic activity (Table 11, ring analogs): P. aeruginosa H188, unit from Table 10. The method in brief: (§4)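 Antimicrobial activity is measured by a liquid-broth assay in LB at 37 °C overnight, starting from 5×10^5 CFU/mL. Values are minimal inhibitory concentrations, i.e. the lowest concentration that stops growth.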

The test system of the next series is E. coli DC2. The format is cell-based, Escherichia coli. Particulars: for Antibiotic activity (Table 11, ring analogs): E. coli DC2, unit from Table 10. Put shortly: (§5)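 MIC read-out, μg/ml, lowest peptide concentration with no growth after overnight incubation at 37 °C in LB liquid broth. Inoculum 5×10^5 CFU/mL from overnight cultures. Therapeutic index = concentration giving complete blood-cell lysis at 4 h divided by MIC.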

The test system of the next series is P. aeruginosa H187. The format is cell-based, Pseudomonas aeruginosa. Particulars: for Antibiotic activity (Table 11, ring analogs): P. aeruginosa H187, unit from Table 10. Put shortly: as §5
Another series concerns E. coli SC9251. Description: MIC, liquid-broth microtitre dilution. The format is cell-based, Escherichia coli. Particulars: unit from Table 10.
Excerpt: as §1, §2

A further series relates to E. coli SC9252. The series can be described thus: MIC, liquid-broth microtitre dilution. The format is cell-based, Escherichia coli. To be noted: unit from Table 10.
Excerpt: as §1, §2

Series [3] in a line: Displacement of dansyl-polymyxin from LPS. In kind it is binding, P. aeruginosa. Put shortly: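 Peptides titrated into 3 μg/mL P. aeruginosa LPS with 2.5 μM dansyl-polymyxin (~90% site saturation) in 5 mM sodium HEPES, pH 7.0; fluorescence decrease recorded. I50 (50% probe displacement) taken from the x-intercept of a double-reciprocal plot of percent inhibition versus inhibitor concentration.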

The test system of a further series is S. aureus K147. The format is cell-based, Staphylococcus aureus. Put shortly:
(§6)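 Liquid-broth microdilution: overnight LB cultures at 37 °C, diluted to a final inoculum of 5×10^5 CFU/mL with serial peptide dilutions, incubated overnight at 37 °C. MIC (μg/ml) is the lowest concentration that inhibited growth. Therapeutic index is the concentration giving complete hemolysis at 4 h divided by the MIC.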

The subject of the next series is S. aureus SAP0017. In kind it is cell-based, Staphylococcus aureus. The method in brief: as §6
In the next series the test system is S. epidermidis. The format is cell-based, Staphylococcus epidermidis. The method in brief: (§7)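 Liquid-broth microdilution: overnight LB cultures diluted and added to serial peptide dilutions at final 5×10^5 CFU/mL, incubated overnight at 37 °C. MIC is the lowest concentration inhibiting growth; C. albicans a clinical isolate, S. epidermidis clinical, C. xerosis environmental.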

The test system of a further series is Acholeplasma laidlawii. The format is cell-based. From the text:
According to another feature of the invention, GS14, which is apparently an unlikely antibacterial agent, is useful against mycoplasma infection. […] One use of such a compound is inclusion in tissue culture media, where mycoplasma contamination can pose serious problems in industrial applications of cell culture. […] Such concentrations can be determined according to standard methods known in the art.

The next series relates to S. typhinurium C587. The format is cell-based, Salmonella typhinurium. Put shortly:
as §4

The next series relates to S. typhinurium C610. In kind it is cell-based, Salmonella typhinurium. The method in brief: as §4
A further series has as its system C. Albicans. In kind it is cell-based, Candida albicans. Put shortly:
as §7

The subject of the next series is E. faecalis. The format is cell-based, Enterococcus faecalis. The method in brief: as §4
The subject of the next series is B. subtilis. In kind it is cell-based, Bacillus subtilis. The method in brief: as §7
The subject of the next series is C. xeroses. In kind it is cell-based, Corynebacterium xerosis. Put shortly:
as §7

Where [4] appears, read: Table 10, read-out: LPS binding activity: peptide concentration to displace 50% of dansyl-polymyxin from LPS.

Read-outs that look alike come from different tables or passages of the source.

`CC(C)C[C@@H]1NC(=O)[C@H](CCCCN)NC(=O)[C@@H]2CCCN2C(=O)[C@@H](Cc2ccc(O)cc2)NC(=O)[C@H](CCCCN)NC(=O)[C@H](C(C)C)NC(=O)[C@H](CCCCN)NC(=O)[C@H](CC(C)C)NC(=O)[C@@H]2CCCN2C(=O)[C@@H](Cc2ccc(O)cc2)NC(=O)[C@H](C(C)C)NC(=O)[C@H](CCCCN)NC1=O` [GS12LV]: the Hemolytic activity with human erythrocytes is 92 µg/mL. In addition, the “Antibiotic activity (Table 11, ring analogs)” value in the series with E. coli UB1005 came to 21 μg/ml; in the series with P. aeruginosa H188 it was 10 μg/ml; in the series with E. coli DC2, 14 μg/ml; in the series with P. aeruginosa H187, 58 μg/ml; with E. coli SC9251 it was 22 μg/ml; in the series with E. coli SC9252, 25 μg/ml. In addition, the “Antibiotic activity, yeast” value in the series with yeast is 50 µg/mL. Moreover, the “Antibiotic activity, gram-positive” value in series [1] is 240 µg/mL. Besides, the “Antibiotic activity, gram-negative” value in series [2] was 25 µg/mL. For the same compound, the IC50 in series [3] (setting [4]) is 33 µM.

The compound `CC(C)C[C@@H]1NC(=O)[C@H](CCCCN)NC(=O)[C@H](C(C)C)NC(=O)[C@@H]2CCCN2C(=O)[C@@H](Cc2ccc(O)cc2)NC(=O)[C@H](CC(C)C)NC(=O)[C@H](CCCCN)NC(=O)[C@H](C(C)C)NC(=O)[C@H](CCCCN)NC(=O)[C@@H]2CCCN2C(=O)[C@@H](Cc2ccc(O)cc2)NC(=O)[C@H](CCCCN)NC1=O` [GS12] came in with a Hemolytic activity in the series with human erythrocytes of 250 µg/mL. In addition, the “Antibiotic activity (Table 11, ring analogs)” value is 25 μg/ml with E. coli UB1005; 10 μg/ml in the series with P. aeruginosa H188; 11 μg/ml in the series with E. coli DC2; 75 μg/ml with P. aeruginosa H187; 42 μg/ml with E. coli SC9251; 30 μg/ml in the series with E. coli SC9252. In addition, the “Antibiotic activity, yeast” value in the series with yeast was 42 µg/mL. In addition, the “Antibiotic activity, gram-positive” value in series [1] was 240 µg/mL. In addition, the “Antibiotic activity, gram-negative” value in series [2] is 32 µg/mL. For the same compound, the IC50 in series [3] (setting [4]) is 46 µM. The “Increase in LPS binding activity in comparison to shorter peptides” value in [3] (addition of two positive charges) was “approximately 6 fold”.

Turning to `CC(C)C[C@@H]1NC(=O)[C@H](CCCCN)NC(=O)[C@H](C(C)C)NC(=O)[C@@H]2CCCN2C(=O)[C@@H](Cc2ccc(O)cc2)NC(=O)[C@H](CC(C)C)NC(=O)[C@H](CCCCN)NC(=O)[C@H](C(C)C)NC(=O)[C@H](CCCCN)NC(=O)[C@H](CC(C)C)NC(=O)[C@@H]2CCCN2C(=O)[C@@H](Cc2ccc(O)cc2)NC(=O)[C@H](C(C)C)NC(=O)[C@H](CCCCN)NC1=O` [GS14], the “Minimum Inhibitory Concentration (activity)” value in the series on S. aureus K147 was over 200 µg/mL; with S. aureus SAP0017 it was over 200 µg/mL; in the series with S. epidermidis it was 200 µg/mL; with S. typhinurium C587 it was over 200 µg/mL; with S. typhinurium C610, over 200 µg/mL; with C. Albicans, 150 µg/mL. The “Minimum Inhibitory Concentration (activity)” value was over 200 µg/mL in the series on E. coli UB1005 (UB1005); 1.5 µg/mL with E. faecalis; over 200 µg/mL in the series on B. subtilis; over 200 µg/mL with P. aeruginosa H188 (H188); over 200 µg/mL in the series on E. coli DC2 (DC2); over 200 µg/mL with P. aeruginosa H187 (H187). The “Minimum Inhibitory Concentration (activity)” value with C. xeroses amounted to 9 µg/mL. Also, the MIC entry against Acholeplasma laidlawii is given as “less than 30 μg/ml”. The “Antibiotic activity (Table 11, ring analogs)” value with E. coli UB1005 is given as 400 μg/ml; with P. aeruginosa H188, 400 μg/ml; with E. coli DC2 it was 190 μg/ml; with P. aeruginosa H187, 400 μg/ml; in the series with E. coli SC9251, 400 μg/ml; in the series with E. coli SC9252 it was 190 μg/ml. Moreover, the “MIC against four of the gram positive microorganisms tested” value in series [1] is over 200 µg/mL. For the same compound, the IC50 in series [3] (read-out: LPS binding affinity: peptide concentration to displace 50% of dansyl-polymyxin B from LPS, Tables 1, 4, 7) amounted to 3 µM.
